The test system of one data set is BRCA2^−/− DLD-1 cells. The data set can be described thus: Single 24 hour treatment, long-term viability of BRCA2-/- DLD-1 cells. It is filed as cell-based, human. As to conditions: BRCA2-/- DLD-1, 24 hour treatment, days 3, 5 and 7. As for the experimental part:
The effects of treatment with the SN38 or 3E10-SN38 conjugates on the colorectal cancer DLD-1 cell line were investigated. WT and BRCA2^−/− deficient DLD-1 cells were tested. FIG. 13 provides the study protocol and timeline. Each well of a 96-well plate was loaded with 1000 DLD-1 cells. 24 hours post-plating, cells were treated with different concentrations of cWT-SN38 conjugate, cD31N-SN38 conjugate, or SN38 for 24 hours. After treatment, the media was replaced with fresh treatment-free media and was not changed again. Cell viability and half maximal effective concentration (EC50) were tracked every 48 hours post-treatment on days 3, 5, and 7. Half maximal effective concentration (EC50) is a measure of the concentration of a drug, antibody or toxicant which induces a response halfway between the baseline and maximum after a specified exposure time.

Data set [1] concerns LoVo colorectal cancer cells. Description: Cell viability of LoVo cells after 7 days of treatment. It counts as cell-based. The procedure:
LoVo colorectal cancer cells were treated with SN38, cD31N antibodies, V66 3E10 antibodies, and conjugates of the present disclosure. […] The EC50 values were calculated and are set forth below in Table 3.

Data set [2] relates to SKOV3 ovarian cancer cells. The data set can be described thus: Cell viability of SKOV3 cells at 7 days of treatment. It is filed as cell-based. As for the experimental part: The effect of SN38 and 3E10-SN38 conjugates were investigated in SKOV3 ovarian cancer cells. SKOV3 cells were treated with SN38, various 3E10 antibodies and 3E10-SN38 conjugates.
EC50 values are also included.
The EC50 values were calculated and are set forth below in Table 4.

pEC50: −log10 of the molar value.

A word on the pEC50: it is the negative decadic logarithm of the EC50, by convention in mol/L. As to `CCc1c2c(nc3ccc(O)cc13)-c1cc3c(c(=O)n1C2)COC(=O)[C@]3(O)CC` [SN38, SN-38], the “EC50 values compared between treatments” value in the data set with BRCA2^−/− DLD-1 cells is on record as “lower EC50 value than both 3E10-SN38 conjugates”. The pEC50 in data set [1] is 8.24; in data set [2] (7 days of treatment), 8.55. The cell viability result in data set [1] was “strongest effect on cell viability”. In data set [2], the “cell viability at the highest concentrations” value is reported as “about 0%”.
